How the values were obtained:
[1] = system: FIG-ROS murine cholangiocarcinoma tumor cells; assay: cells; details: Mus musculus, read-out: IC50 cell growth
Protocol: (§1) Hepatoblasts of the genotype AlbCre^+/−; Isl Kras^G12D+/−; p53^R172H/loxp were isolated from ED14.5 mouse embryos and retrovirally transduced with either the FIG-ROS fusion, turbo RFP or a short hairpin RNA against Pten (shPten.1522). At 48 hours following transduction, 1×10^6 cells were resuspended in 25 μl Matrigel and injected sub-capsular into the livers of immune-deficient mice. Upon tumor formation, tumors were explanted and subjected to collagenase digestion. Digests were plated onto gelatin-coated plates. Tumor cells were enriched by either differential trypsinization or cell sorting. […] These four cell lines were further cultured and maintained in DMEM-High glucose medium supplemented with 10% FCS, L-glutamine and penicillin/streptomycin.
(§2) Cell lines were distributed in 96-well plates and incubated with the indicated concentrations of inhibitor for 72 hours. […] Ba/F3 cell lines were plated at 4×10^3 cells/well. HCC78 and mCC cell lines were plated at 1.5×10^3 cells/well. All cell types were seeded in a final volume of 80 microliters. A 20 microliter volume of five-fold concentrated inhibitor media was added. Cell proliferation was measured using a […] viability assay (CellTiter96 Aqueous One® Solution; Promega). A BioTek Synergy 2® plate reader was used to read the absorbance at 490 nm at 30 minutes and 1 hour after addition of MTS. To facilitate comparison between experiments, the raw MTS absorbance of vehicle (0.1% DMSO) treated cells was set to 1 and absorbance from inhibitor treated wells was normalized to the vehicle treated value. […] Data were normalized using Microsoft Excel® and further non-linear regression curve fit analysis of the normalized data for determination of IC50 was performed using Graphpad Prism® software.
(§3) To directly assess inhibition of FIG-ROS phosphorylation, immunoblot analyses of lysates from vehicle or inhibitor-treated cells were performed.

[2] = system: shPten murine cholangiocarcinoma tumor cells; assay: cells; details: Mus musculus, read-out: IC50 cell growth
Protocol: as §1, §2, §3

[3] = system: FIG-ROS and ROS-1 effector pathway phosphorylation; assay: Immunoblot of FIG-ROS tumor lysates after oral gavage; assay type: in vivo, mice; details: 25 mg/kg oral gavage
Protocol: FIG. 3D is an image of an immunoblot of tumor lysates probed for phosphorylated and total ROS1, phosphorylated and total Shpt, phosphorylated and total Stat3, phosphorylated and total Src as well as tubulin as a loading control.
Ba/F3 FIG-ROS, Ba/F3 SLC-ROS, HCC78 and mCC cell lines were treated with the indicated concentration of inhibitors for 1-2 hours. […] The protein content of the cell lysates was determined and lysates were either used for immunoprecipitation where indicated or extracted with SDS Sample buffer for 15 minutes at 80° C. Proteins were transferred to Immobilon-FL membranes and immunoblotted with antibodies specific for phospho-ROS1 (Cell Signaling Technology (CST) #3078), total ROS1 (CST #3266), phopsho-Shp2 (CST #3751), total Shpt (CST #3752), phospho-Stat3 (CST #9145), total Stat3 (CST #4904), phospho-Erk1/2 (CST #9101), total Erk2 (Santa Cruz #SC-1647), phospho-S6 (CST #4858), total S6 (CST #2216), phospho-Src (CST #2105), total Src (CST #2110), α-tubulin (Sigma T6199), or β-actin (Sigma A1978) as indicated. Images of the blots were generated by the LI-COR Odyssey® imaging system, following the manufacturer's protocol for immunoblot detection with use of IR-dye conjugated secondary antibodies.
Concomitant with diminished FIG-ROS activation, phosphorylation of Shpt and Stat3, but not Src is inhibited in the treated tumors.

[4] = target: Ba/F3 FIG-ROS C2060G cells (Homo sapiens, UniProt P08922, C2060G, cells depend on it); assay: Cell viability assay, Ba/F3 FIG-ROS C2060G; assay type: cell-based; details: Table 3, Ba/F3 FIG-ROS C2060G; nM; read-out: IC50 (the source's name)
Protocol: as §2
(§4) The FIG-ROS-S fusion gene was synthesized using the GeneArt® service. FIG-ROS-S is denoted as FIG-ROS herein.

[5] = target: Ba/F3 FIG-ROS L1947R cells (Homo sapiens, UniProt P08922, L1947R, cells depend on it); assay: Cell viability assay, Ba/F3 FIG-ROS L1947R; assay type: cell-based; details: Table 3, Ba/F3 FIG-ROS L1947R; nM; read-out: IC50 (the source's name)
Protocol: as §2, §4

[6] = target: Ba/F3 FIG-ROS kinase domain mutants (Homo sapiens, UniProt P08922, cells depend on it, form not given); assay: Cell viability assay, all tested Ba/F3 FIG-ROS kinase domain mutants; assay type: cell-based; details: V2098I, G1971E, L1982F, C2060G, L1947R, E1935G; read-out: IC50 across all tested FIG-ROS mutants
Protocol: as §2, §4

FIG-ROS = FIG-ROS (Homo sapiens, UniProt P08922); assay: Immunoblot of NIH3T3 FIG-ROS lysates; assay type: cell-based; design: expressed in transfected cells; host or cells: Ba/F3 (A14) and NIH3T3 (A24), retroviral pMSCV-IRES-GFP; the other entry of the earlier key: GOPC (Q9HD26, Golgi-associated PDZ and coiled-coil motif-containing protein); details: NIH3T3 FIG-ROS cells, 1 hour, at lower doses than crizotinib
Protocol: The parental Ba/F3 cell line was cultured in RPMI 1640 medium with 10% FBS, L-glutamine, penicillin/streptomycin and 15% WEHI-conditioned media. Ba/F3 cell lines were maintained at densities of 0.5×10^6 to 1.5×10^6 per ml of media. FIG-ROS and SLC-ROS Ba/F3 lines were created by infecting the parental Ba/F3 with retrovirus expressing either human FIG-ROS-S (indicated FIG-ROS herein) or SLC-ROS-S (indicated SLC-ROS herein). Stable transfectant lines were sorted for GFP expression on a FACS Aria® flow cytometer. Cells were counted daily using Guava ViaCount® reagent and Guava Personal Cell Analysis® flow cytometer. […] Early passage NIH3T3 cells were infected with retrovirus expressing either FIG-ROS or SLC-ROS and sorted for GFP expression as described above for Ba/F3 cells. HCC78 cells were cultured in RPMI 1640 medium with 10% FBS, L-glutamine, and penicillin/streptomycin. This media is referred to as RPMI-10% FBS herein.

For `COc1cc2c(Oc3ccc(NC(=O)C4(C(=O)Nc5ccc(F)cc5)CC4)cc3F)ccnc2cc1OCCCN1CCOCC1` [foretinib, N1′-[3-fluoro-4-[[6-methoxy-7-(3-morpholinopropoxy)-4-quinolyl]oxy]phenyl]-N1-(4-fluorophenyl)cyclopropane-1,1-dicarboxamide], the IC50 [1] was 300 nM, the IC50 [2] was > 2000 nM and the “intra-tumoral phosphorylation of Shpt and Stat3” value ([3]; FIG-ROS tumors) was “is inhibited”. For the same molecule, the “intra-tumoral phosphorylation of Src” value ([3]; FIG-ROS tumors) was “but not Src”, the “intra-tumoral FIG-ROS phosphorylation” value ([3]; tumors harvested at 1, 2, 4 and 8 hours) was “Rapid and robust inhibition” and the GI50 [4] was 13.6 nM. The GI50 [5] was 17.9 nM, the GI50 [6] was < 20 nM and the FIG-ROS phosphorylation (FIG-ROS) was “strongly suppressed”.
